Patent publication US20220363673A1, “5-(Thiophen-2-YL)-1 H-Tetrazole Derivative as BCKDK Inhibitors Useful for Treating Various Diseases” (Pfizer Inc., priority 2019, published 2022)
pIC50: −log10 of the molar value. Counter-ions that a name gives are not always drawn.

biological target: T1, human BCKDK (Homo sapiens, UniProt O14874); assay: In Vitro FRET (TR-FRET) BCKDK activity assay, phosphorylation of BCKDHE1α-E2 fusion substrate; assay type: biochemical; conditions: geometric mean, two significant figures; 15 μM ATP
T1 construct: human BCKDK (residues 31-412 of the protein pre-processing); 6xHis (N, cleaved yes); MBP (N, cleaved yes); TEV protease site (ENLYFQG) (N, cleaved yes); made in house; host or cells: BL21(DE3) E. coli, co-expressed with GroEL-GroES
Description: BCKDK protein was generated using a pET vector containing from N- to C-terminus: 6×His, MBP, a TEV protease site (ENLYFQG), a biotin acceptor peptide ([…]), and human BCKDK (residues 31-412 of the protein pre-processing). Protein was co-expressed with GroEL-GroES in BL21(DE3) E. coli in LB media, and protein production was induced with 0.5 mM IPTG and 0.5 mg/mL L-arabinose at an OD600 of 1 and grown for 16 h at 26° C. Bacteria were lysed using a Microfluidizer in 100 mM potassium phosphate pH 7.5, 500 mM NaCl, 0.1 mM EDTA, 1% Tween-20, 0.25% Triton X-100, 10% glycerol, 1 mM DTT, and protease inhibitors. MBP-tagged protein was purified by affinity chromatography using amylose resin, and MBP was removed from BCKDK by TEV protease incubation followed by gel filtration chromatography in 50 mM HEPES pH 7.5, 500 mM NaCl, 300 mM L-Arginine, 2 mM MgCl2, 1 mM DTT, and 10% glycerol.
A pET vector containing E. coli LplA was expressed in BL21(DE3) E. coli in LB media, and protein production was induced with 0.75 mM IPTG at an OD600 of 1 and grown for 16 h at 30° C. Bacteria were lysed using a Microfluidizer in 50 mM sodium phosphate buffer pH 7.5, 350 mM NaCl, 1.5 mM MgCl2, and 1 mM DTT. LplA protein was precipitated from clarified lysate with 1 M ammonium sulfate and further purified by gel filtration chromatography in 50 mM sodium phosphate pH 7.5, 350 mM NaCl, 1.5 mM MgCl2, 1 mM DTT, and 10% glycerol.
The BCKDHE1α-E2 fusion substrate was cloned into a pET vector and contained from N- to C-terminus: the lipoyl binding domain of E2 (residues 62-160 pre-processing), a TEV protease site (LENLYFQG), residues 331-345 (pre-processing) from E1α, and 6×His (Tso, S. C. et al., J Biol Chem 2014, 289 (30), 20583-20593). The fusion substrate was expressed in BL21(DE3) E. coli in LB media, and protein production was induced with 0.75 mM IPTG at an OD600 of 1 and grown for 16 h at 30° C. Bacteria were lysed using a Microfluidizer in 50 mM sodium phosphate pH 7.5, 350 mM NaCl, 10 mM imidazole, 10% glycerol, 1 mM DTT, and protease inhibitors. […] For lipoylation, fusion substrate was incubated with LplA at a 10:1 (substrate:LplA) ratio in 20 mM sodium phosphate pH 7.4, 6 mM MgCl2, 4 mM ATP, 2 mM DTT, 3 mM DL-6,8-thioctic acid at 37° C. The reaction was monitored using an Agilent 6530 Q-TOF coupled to an Agilent 1290 UPLC. The final lipoylated fusion substrate was purified by gel filtration chromatography in 50 mM HEPES pH 7.5, 350 mM NaCl, 1.5 mM MgCl2, 1 mM DTT, 10% glycerol.
BCKDK activity was monitored by phosphorylation of a HIS-tagged fusion BCKDHE1α-E2 substrate protein as described above and was detected using a time resolved-fluorescence resonance energy transfer (TR-FRET) assay system. Compounds were spotted into a 384 well plate, and purified human BCKDK protein was added to the plated compound. After incubation, the LBD-linker-E1 phosphorylation sequence was added in the presence of 15 μM ATP. The reaction was terminated with EDTA. Phosphorylated substrate was recognized by the addition of rabbit anti-E1 phospho Ser293 antibodies (Bethyl Laboratories—A304-672A), and the TR-FRET signal was developed by addition of anti-HIS donor molecules (Europium; Perkin Elmer—AD0205, AD0110, AD0111) and anti-Rabbit acceptor molecules (Ulight; Perkin Elmer—TRF502D, TRF502M, TRF502R). Recognition of phosphorylated E1 brought donor and acceptor molecules into close proximity, and excitation at 320 nm caused energy transfer from the Europium donor to the Ulight acceptor dye, which in turn generated light at 665 nm. Signal intensity was proportional to the level of BCKDK-mediated substrate phosphorylation. Reactions were normalized to zero percent effect with DMSO and one hundred percent effect with 600 μM Radicicol, a known BCKDK inhibitor. IC50 curves were generated using ABASE software (IDBS, Boston Mass.).

SMILES	pIC50
FC(F)(F)c1ccsc1-c1nnn[nH]1 [Example 22, 5-[3-(trifluoromethyl)thiophen-2-yl]-1H-tetrazole]	4.96
Fc1ccsc1-c1nnn[nH]1 [Example 28, 5-(3-fluorothiophen-2-yl)-1H-tetrazole]	4.80
COc1ccsc1-c1nnn[nH]1 [Example 24, 5-(3-methoxythiophen-2-yl)-1H-tetrazole]	< 3.52
Cc1ccsc1-c1nnn[nH]1 [Example 36, 5-(3-methylthiophen-2-yl)-1H-tetrazole]	5.22
CCc1cc(Br)c(-c2nnn[nH]2)s1 [Example 13, 5-(3-Bromo-5-ethylthiophen-2-yl)-1H-tetrazole]	< 4.08
Oc1cc(Br)sc1-c1nnn[nH]1 [Example 15, 5-bromo-2-(1H-tetrazol-5-yl)thiophene-3-ol]	4.89
Clc1ccsc1-c1nnn[nH]1 [Example 7, 5-(3-chlorothiophen-2-yl)-1H-tetrazole]	4.96
Oc1ccsc1-c1nnn[nH]1 [Example 37, 2-(1H-tetrazol-5-yl)thiophene-3-ol]	4.89
Cc1c(-c2nnn[nH]2)sc(Br)c1Br [Example 18, 5-(4,5-dibromo-3-methylthiophen-2-yl)-1H-tetrazole]	5.35
c1cc(C2CC2)c(-c2nnn[nH]2)s1 [Example 26, 5-(3-cyclopropylthiophen-2-yl)-1H-tetrazole]	< 3.52
Clc1cc(C2CC2)c(-c2nnn[nH]2)s1 [Example 29, 5-(5-chloro-3-cyclopropylthiophen-2-yl)-1H-tetrazole]	5.00
CCc1cc(C)c(-c2nnn[nH]2)s1 [Example 32, 5-(5-ethyl-3-methylthiophen-2-yl)-1H-tetrazole]	4.82
CCc1ccsc1-c1nnn[nH]1 [Example 25, 5-(3-ethylthiophen-2-yl)-1H-tetrazole]	5.01
Brc1csc(-c2nnn[nH]2)c1Br [Example 17, 5-(3,4-dibromothiophen-2-yl)-1H-tetrazole]	5.21
FC(F)(F)c1cc(Cl)sc1-c1nnn[nH]1 [Example 23, 5-[5-chloro-3-(trifluoromethyl)thiophen-2-yl]-1H-tetrazole]	5.14

Second part, the compound after the results:

pIC50	SMILES
5.96	CCc1c(Br)csc1-c1nnn[nH]1 [Example 4, 5-(4-Bromo-3-ethylthiophen-2-yl)-1H-tetrazole, ammonium salt]
6.09	Cc1c(-c2nnn[nH]2)sc(Cl)c1F [Example 10, 5-(5-Chloro-4-fluoro-3-methylthiophen-2-yl)-1H-tetrazole]
5.54	Fc1cc(Cl)sc1-c1nnn[nH]1 [Example 30, 5-(5-chloro-3-fluorothiophen-2-yl)-1H-tetrazole]
5.39	Clc1cc(Br)c(-c2nnn[nH]2)s1 [Example 19, 5-(3-bromo-5-chlorothiophen-2-yl)-1H-tetrazole]
5.57	Fc1cc(Br)c(-c2nnn[nH]2)s1 [Example 34, 5-(3-bromo-5-fluorothiophen-2-yl)-1H-tetrazole]
5.96	CCc1c(Cl)csc1-c1nnn[nH]1 [Example 3, 5-(4-Chloro-3-ethylthiophen-2-yl)-1H-tetrazole, ammonium salt]
5.40	CCc1cc(Cl)sc1-c1nnn[nH]1 [Example 27, 5-(5-chloro-3-ethylthiophen-2-yl)-1H-tetrazole]
5.85	Brc1ccsc1-c1nnn[nH]1 [Example 35, 5-(3-bromothiophen-2-yl)-1H-tetrazole]
5.60	FC(F)c1ccsc1-c1nnn[nH]1 [Example 5, 5-[3-(Difluoromethyl)thiophen-2-yl]-1H-tetrazole]
5.35	COc1cc(Br)sc1-c1nnn[nH]1 [Example 16, 5-(5-bromo-3-methoxythiophen-2-yl)-1H-tetrazole]
5.72	Cc1c(-c2nnn[nH]2)sc(Cl)c1Cl [Example 11, 5-(4,5-Dichloro-3-methylthiophen-2-yl)-1H-tetrazole]
5.96	FC(F)c1cc(Cl)sc1-c1nnn[nH]1 [Example 6, 5-[5-Chloro-3-(difluoromethyl)thiophen-2-yl]-1H-tetrazole]
5.44	Cc1cc(F)sc1-c1nnn[nH]1 [Example 2, 5-(5-Fluoro-3-methylthiophen-2-yl)-1H-tetrazole]
5.51	Cc1cc(Br)sc1-c1nnn[nH]1 [Example 33, 5-(5-bromo-3-methylthiophen-2-yl)-1H-tetrazole]
5.70	Clc1cc(Cl)c(-c2nnn[nH]2)s1 [Example 12, 5-(3,5-Dichlorothiophen-2-yl)-1H-tetrazole, ammonium salt]
5.43	Cc1cc(C(F)(F)F)sc1-c1nnn[nH]1 [Example 20, 5-[3-methyl-5-(trifluoromethyl)thiophen-2-yl]-1H-tetrazole]
5.47	Clc1cc(Br)sc1-c1nnn[nH]1 [Example 8, 5-(5-Bromo-3-chlorothiophen-2-yl)-1H-tetrazole]
5.59	Cc1cc(Cl)c(-c2nnn[nH]2)s1 [Example 14, 5-(3-chloro-5-methylthiophen-2-yl)-1H-tetrazole]
5.44	Cc1cc(C(F)F)sc1-c1nnn[nH]1 [Example 21, 5-[5-(difluoromethyl)-3-methylthiophen-2-yl]-1H-tetrazole]
5.44	Fc1cc(Cl)c(-c2nnn[nH]2)s1 [Example 31, 5-(3-chloro-5-fluorothiophen-2-yl)-1H-tetrazole]
